Five molecules from patent publication US20240327428A1, “Inhibitors of human immunodeficiency virus replication, method of making and method of using thereof” (ASCLETIS BIOSCIENCE CO., LTD., priority 2023, published 2024) can be followed below.

In one data set the test system is MT-4 cells. Kind of data set: Cellular toxicity in MT-4 cells (XTT staining). It is filed as cell-based. To be noted: 6 days incubation, read-out: TC50 (50% reduction in cell viability). The protocol: (§1) The compounds were evaluated for inhibition of HIV-1IIIB infection and cellular toxicity in MT-4 cells.
(§2) The MT-4 cells and […] used in the HIV-1 inhibition assays were obtained from the AIDS Research and Reference Program (Rockville, MD) and propagated as recommended by the supplier.
(§3) Fifty microliters (50 μL) of MT-4 cells at a density of 1.0×10^4 cells/well in 10% complete RPMI-1640 (10% FBS supplemented with 1% L-glutamine and 1% Penicillin/Streptomycin) media were plated in a 96-well flat bottom plate. One-hundred microliters (100 μL) of each compound at 12 concentrations were added in triplicate followed by 50 μL of HIV-1IIIB at a pre-determined titer. The cultures were incubated for 6 days at 37° C./5% CO2. Following the incubation, the cells were stained with XTT for evaluation of compound efficacy and cellular toxicity, as described below.
(§4) Efficacy and toxicity values for the test materials were derived by measuring the reduction of the tetrazolium dye XTT (2,3-bis(2-methoxy-4-nitro-5-sulfophenyl)-5-[(phenylamino)carbonyl]-2H-tetrazolium hydroxide). XTT in metabolically active cells is metabolized by the mitochondrial enzyme NADPH oxidase to a soluble formazan product. XTT solution was prepared daily as a stock of 1 mg/mL in RPMI-1640 without additives. Phenazine methosulfate (PMS) solution was prepared at 0.15 mg/mL in DPBS and stored in the dark at −20° C. XTT/PMS stock was prepared immediately before use by adding 40 μL of PMS per mL of XTT solution. Fifty μL (50 μL) of XTT/PMS was added to each well of the plate and the plate incubated for 4 hours at 37° C. The 4-hour incubation has been empirically determined to be within the linear response range for XTT dye reduction with the indicated numbers of cells for each assay. The plates were sealed and inverted several times to mix the soluble formazan product and the plate was read at 450 nm (650 nm reference wavelength) with a Molecular Devices SpectraMax Plus 384 96 well plate format spectrophotometer.
(§5) Microsoft Excel 2010 in combination with XLfit4 was used to analyze and graph the data. EC50 (50% inhibition of virus replication), TC50 (50% reduction in cell viability) and a therapeutic index (TC50/EC50) are provided. Raw data for both antiviral activity and toxicity with a graphic representation of the data are provided in a printout summarizing the compound activity.
On the technique in general: Tetrazolium dyes change colour on reduction, which living cells bring about.

The subject of a further data set is HIV-1IIIB. Kind of data set: Inhibition of HIV-1IIIB infection in MT-4 cells (XTT staining). It is filed as cell-based. The conditions noted are these: HIV-1IIIB in MT-4 cells; for EC50: 6 days incubation, XTT, read-out: EC50 (50% inhibition of virus replication). Here is the method:
as §1, §2, §3, §4, §5

For `CS(=O)(=O)Nc1nn(CC(F)(F)F)c2c(-n3c([C@H](Cc4cc(F)cc(F)c4)NC(=O)Cn4nc(C(F)(F)F)c5c4C(F)(F)[C@@H]4C[C@H]54)nc4ncsc4c3=O)ccc(Cl)c12` (atropisomer, axis not shown) [Compound 31], in the data set on MT-4 cells, the CC50 was above 100 nM. For the same molecule, in the data set on HIV-1IIIB, the “Therapeutic Index (TC50/EC50)” value is recorded as above 384.6 and the EC50 (usually the concentration at which the effect is half-maximal) was 0.26 nM.
For the molecule `Cn1nc(NS(C)(=O)=O)c2c(Cl)ccc(-n3c([C@H](Cc4cc(F)cc(F)c4)NC(=O)Cn4nc(C(F)(F)F)c5c4C(F)(F)[C@@H]4C[C@H]54)nc4sccc4c3=O)c21` (atropisomer, axis not shown) [Compound 33], in the data set with MT-4 cells, the CC50 is above 100 nM. In the data set with HIV-1IIIB, the “Therapeutic Index (TC50/EC50)” value is on record as above 294.1 and the EC50 was found to be 0.34 nM.
On to `Cn1nc(NS(C)(=O)=O)c2c(Cl)ccc(-n3c([C@H](Cc4cc(F)cc(F)c4)NC(=O)Cn4nc(C(F)(F)F)c5c4C(F)(F)[C@@H]4C[C@H]54)nc4onc(-c5ccccc5)c4c3=O)c21` (atropisomer, axis not shown) [Compound 38], for which the CC50 in the data set on MT-4 cells is above 100 nM. Further, in the data set on HIV-1IIIB, the EC50 was above 100 nM.
For the molecule `Cn1nc(NS(C)(=O)=O)c2c(Cl)ccc(-n3c([C@H](Cc4cc(F)cc(F)c4)NC(=O)Cn4nc(C(F)(F)F)c5c4C(F)(F)[C@@H]4C[C@H]54)nc4ncsc4c3=O)c21` (atropisomer, axis not shown) [Compound 36], the CC50 in the data set with MT-4 cells was above 100 nM. Also, in the data set with HIV-1IIIB, the “Therapeutic Index (TC50/EC50)” value was above 625.0 and the EC50 stood at 0.16 nM.
For `Cc1nsc2nc([C@H](Cc3cc(F)cc(F)c3)NC(=O)Cn3nc(C(F)(F)F)c4c3C(F)(F)[C@@H]3C[C@H]43)n(-c3ccc(Cl)c4c(NS(C)(=O)=O)nn(C)c34)c(=O)c12` (atropisomer, axis not shown) [Compound 45], in the data set on MT-4 cells, the CC50 was above 100 nM. Besides, in the data set on HIV-1IIIB, the “Therapeutic Index (TC50/EC50)” value is recorded as above 212.8 and the EC50 was 0.47 nM.
